Measurements reported in ChEMBL document CHEMBL1201862, “PubChem BioAssay data set” (2004).
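Method: 48-hour compound exposure of cells in 96-well plates, five concentrations, linear interpolation of endpoints. GI50 is the concentration that inhibits growth by half.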 Calls of active or inactive are those of the source. No stated cut-off is given here; in the data, active = GI50 up to about 1.1 µM and inactive = higher.

Tests used:
Test in all cases: NCI anticancer screen, dose series, 48 h
[1] = tested on: CCRF-CEM
[2] = tested on: COLO 205
[3] = tested on: HCT-116
[4] = tested on: HL-60
[5] = tested on: HT-29
[6] = tested on: IGROV-1
[7] = tested on: KM12
[8] = tested on: MOLT-4
[9] = tested on: NCI-H23
[10] = tested on: NCI-H460
[11] = tested on: OVCAR-4
[12] = tested on: OVCAR-8
[13] = tested on: SK-MEL-28
[14] = tested on: SK-MEL-5
[15] = tested on: SK-OV-3
[16] = tested on: SN12C
[17] = tested on: SNB-19
[18] = tested on: U-251
[19] = tested on: UACC-62
[20] = tested on: UO-31

Measured: GI50

O=C1C(Cl)N(c2ccc([N+](=O)[O-])cc2)C1c1c[nH]c2ccccc12 (stereo not given)
inactive: [1] 9.25 µM | [2] > 100 µM | [3] 55.5 µM | [4] 31 µM | [5] 48.1 µM | [6] 77.6 µM | [7] 66.2 µM | [8] 28.6 µM | [9] 86.9 µM | [10] 41.7 µM | [11] 53 µM | [12] > 100 µM | [13] > 100 µM | [14] > 100 µM | [15] 56.6 µM | [16] > 100 µM | [17] > 100 µM | [18] 62.5 µM | [19] 51.3 µM | [20] 38.3 µM

COc1cccc(CC2Cc3ccccc3CC(=O)N2)c1 (stereo not given)
inactive: [1] 58.3 µM | [2] 74.1 µM | [3] 49 µM | [4] 40.1 µM | [5] 92.7 µM | [6] 16.9 µM | [7] 22 µM | [8] 31.3 µM | [9] 42.6 µM | [10] 20.9 µM | [11] > 100 µM | [12] 53.8 µM | [13] 54.2 µM | [14] 20.6 µM | [15] 62.8 µM | [16] 69 µM | [17] 90.8 µM | [18] 47.1 µM | [19] 39.8 µM | [20] 20.8 µM

COc1ccc(CCn2nccc2C)cc1
inactive: [1] > 100 µM | [2] > 100 µM | [3] > 100 µM | [4] > 100 µM | [5] > 100 µM | [6] > 100 µM | [7] > 100 µM | [8] > 100 µM | [9] > 100 µM | [10] > 100 µM | [11] > 100 µM | [12] > 100 µM | [13] > 100 µM | [14] > 100 µM | [15] > 100 µM | [16] 80.9 µM | [17] > 100 µM | [18] > 100 µM | [19] > 100 µM | [20] 59.6 µM

COc1ccccc1NC(=O)C(=O)C(C(=O)c1ccccc1F)C1OC(=O)c2ccccc21 (stereo not given)
inactive: [1] 16.1 µM | [2] 19.2 µM | [3] 22 µM | [4] 20.3 µM | [5] 23.9 µM | [6] 52.6 µM | [7] 30.1 µM | [8] 15.5 µM | [9] 20 µM | [10] 25.8 µM | [11] 28.1 µM | [12] 19.9 µM | [13] 46.3 µM | [14] 39.1 µM | [15] 35.6 µM | [16] 24.2 µM | [17] 19.3 µM | [18] 14.3 µM | [19] 15.8 µM | [20] 32.4 µM

COc1c(O)c(C=O)c2c(O)c(-c3c(C)cc4c(C(C)C)c(OC)c(O)c(C=O)c4c3O)c(C)cc2c1C(C)C [6,6'-METHOXYGOSSYPOL]
inactive: [1] 5.16 µM | [2] 1.89 µM | [3] 2.61 µM | [4] 4.46 µM | [5] 4.13 µM | [6] 5.47 µM | [7] 5.05 µM | [8] 7.53 µM | [9] 3.61 µM | [10] 4.72 µM | [11] 3.86 µM | [12] 3.74 µM | [13] 6.61 µM | [14] 9.23 µM | [15] 4.19 µM | [16] 2.74 µM | [17] 3.88 µM | [18] 3.2 µM | [19] 11.9 µM | [20] 3.3 µM
